Data: patent US11788147B2, “Markers of triple-negative breast cancer and uses thereof” (Vanderbilt University, priority 2011, dated 2023)
Like-named read-outs stand apart in the source and are kept apart here. Values belong to the compound of their own block, whether it stands above or below them.

Columns and labels:
[1] = test system: basal-like (BL1 and BL2) TNBC cell lines; assay: Cell proliferation/viability assay (alamarBlue) and IC50 determination; type: cell-based, human
Method: (§1) Cell proliferation/viability assays and IC50 determinations. All cell lines and culture conditions used can be found in Supplemental Methods (Table 5). Short tandem repeat (STR) DNA fingerprinting analysis was performed on all TNBC cell lines used in this study (Cell Line Genetics). […] Breast cancer cell lines and HMECs were seeded (3,000-10,000 cells) in quadruplicate wells in 96-well plates. […] Medium was then replaced with either fresh medium (control) or medium containing half-log serial dilutions of the following drugs: 0.3-30 μM olaparib (ChemieTek), 0.3-30 μM veliparib (ChemieTek), 1-100 μM bicalutamide (IPR Pharmaceutical), 0.3-30 μM cisplatin (APP Pharmaceutical), 3-300 nM NVP-BEZ235 (Chemdea), 10-1000 nM 17-DMAG (ChemieTek), and 0.1-10 μM dasatinib (LC Laboratories). Viability was determined from measuring fluorescent intensity after metabolic reduction of alamarBlue in the presence/absence of the drug after 72 hours. Viability assays were performed in triplicate, and replicates were normalized to untreated wells. […] For analysis of cell-line drug assays, data generated from the different cell lines representative of TNBC subtypes were compared using the nonparametric Mann-Whitney U test. All analyses and graphic representations were performed using Prism software (version 4.0c; GraphPad Software), and values are represented as the mean±SEM.

LAR TNBC cell lines = assay: as above; type: cell-based, human; conditions: 72 hours
Method: as §1

[2] = test system: mesenchymal-like (M and MSL) TNBC cell lines; assay: as above; type: cell-based, human; conditions: 72 hours
Method: (§2) Cell proliferation/viability assays and IC50 determinations. All cell lines and culture conditions used can be found in Supplemental Methods (Table 5). Short tandem repeat (STR) DNA fingerprinting analysis was performed on all TNBC cell lines used in this study (Cell Line Genetics). […] Breast cancer cell lines and HMECs were seeded (3,000-10,000 cells) in quadruplicate wells in 96-well plates. […] Viability was determined from measuring fluorescent intensity after metabolic reduction of alamarBlue in the presence/absence of the drug after 72 hours. Viability assays were performed in triplicate, and replicates were normalized to untreated wells. […] For analysis of cell-line drug assays, data generated from the different cell lines representative of TNBC subtypes were compared using the nonparametric Mann-Whitney U test. All analyses and graphic representations were performed using Prism software (version 4.0c; GraphPad Software), and values are represented as the mean±SEM.

[3] = test system: mesenchymal-like TNBC cell lines; assay: Cell proliferation/viability assay and IC50 determination (Example 3); type: cell-based, human; conditions: 72 hours; basal-like, mesenchymal-like and normal cells compared
Method: Cell proliferation/viability assays and IC50 determinations. All cell lines were maintained in culture as previously described herein. Breast cancer cell lines and HMECs were seeded (3,000-10,000 cells) in quadruplicate wells in 96-well plates. Media was then replaced with either fresh media (control) or media containing half-log serial dilutions of the following drugs: Sorafenib, OSi-906, BMS-754807 and PF2341066 purchased from Selleck Chemicals (Houston, TX) Viability was determined from measuring fluorescent intensity after metabolic reduction of Alamar Blue in the presence/absence of drug after 72 hours. Viability assays were performed in triplicate and replicates were normalized to untreated wells. Inhibitory concentration (IC50) values were determined after double-log transformation of dose response curves.

[4] = test system: AR-expressing TNBC cell lines; assay: Viability of AR-expressing TNBC cell lines, PI3K inhibitors alone or with bicalutamide (2-D); type: cell-based, human; conditions: alone, 72 h
Method: All cell lines were maintained in culture as previously described (JCI ref). Breast cancer cell lines and HMECs were seeded (3,000-10,000 cells) in quadruplicate wells in 96-well plates. […] Viability was determined from measuring fluorescent intensity after metabolic reduction of Alamar Blue in the presence/absence of drug after 72 hours. Viability assays were performed in triplicate and replicates were normalized to untreated wells.

[5] = test system: CAL-148, MFM-223 and MDA-MB-453 cells; assay: 3-D forced suspension viability assay; type: cell-based, human; conditions: increasing doses, alone, 72 h; to a lesser degree than in 2-D
Method: CAL-148, MFM-223 and MDA-MB-453 cells were plated (10,000 cells/well) in quadruplicate into 96-well plates coated with 0.9% agarose diluted in corresponding media. Following 5 d of growth, cells were then treated with increasing half-log concentrations of GDC-0941 (10-3000 nM), GDC0980 (1 nM −300 nM), BKM120 (10 nM-3000 nM) and NVP-BEZ235 (1 nM-300 nM) alone or in combination with 25 μM bicalutamide (CDX) for an additional 72 h, upon which cells were imaged and viability determined by Alamar blue.

[6] = test system: p-AKT, p-S6 and AR in AR-expressing TNBC cell lines; assay: Immunoblot analysis of the PI3K/mTOR pathway and AR; type: cell-based, human; conditions: for activated AKT: 24 h or 48 h
Method: Immunoblot analysis was performed on cell lystates from untreated cells or cells treated alone or in combination with CDX, GDC-0941 and GDC-0980 to evaluate attenuation of the PI3K/mTOR pathway. […] Cells were trypsinized, lysed and relative protein expression was determined by Western blot as previously described (JCI reference) with the following antibodies; the AR polyclonal antibody, SC-N20 (Santa Cruz Biotechnology), pS[…]/236 (Cell Signaling #4856), S6 (Cell Signaling #2317), pAKT-5473 (Cell Signaling #9271), AKT (Cell Signaling #9272), PARP (Cell Signaling #9542) and GAPDH (Millipore).

MDA-MB-453 cells = assay: Sub-G1 (sub 2N DNA) fraction by FACs analysis; type: cell-based, human
Method: FIGS. 31A-31B: Combined inhibition of AR and PI3K increases apoptotic cell death in AR+TNBC cell lines. (31A) Bar graphs display relative caspase 3/7 activity (RLU) normalized to viable cell number 48 hrs after treatment with vehicle, positive control (3 μM adriamycin, ADR), 50 μM bicalutamide (CDX) and 3 μM GDC-0941 or 1 μM GDC-0980 alone or in combination with CDX. (31B) Histograms show representative cell cycle analysis of MDA-MB-453 cells treated with similar conditions as above. Indicated percentages represent the fraction of hypodiploid DNA (sub-G1), indicative of late stage apoptotic DNA fragmentation.
In addition to caspase activation, the percentage of sub 2N DNA (sub-G1)-containing cells (indicative of late stage apoptotic DNA fragmentation) was quantitated by FACs analysis. […] Therefore, the decreased viability of AR-positive TNBC cell lines treated with a combination of AR and PI3K inhibitors can be, in part, attributed to apoptosis.

[7] = test system: activated caspase 3/7 in AR-positive TNBC cell lines; assay: Caspase 3/7 activity (Caspase-Glo); type: cell-based, human; conditions: 48 h; ADR 3 μM, bicalutamide 50 μM, GDC-0941 3 μM, GDC-0980 1 μM
Method: Cell lines were seeded in triplicate in 96-well plates. Media was removed and replaced with media containing vehicle (control) or indicated drugs. After 48 hrs, apoptosis was determined by measuring luciferase from activated caspase 3/7 upon addition of Caspase-Glo reagent (Promega, Madison, WI). Relative levels of caspase activity were normalized to viable cell number determined by metabolic reduction of Alamar blue.

[8] = test system: CAL-148 and MDA-MB-453 xenograft tumors; assay: Xenograft tumor studies (Example 2); type: in vivo, mice; conditions: single agent alone; bicalutamide 100 mg/kg/d, GDC0980 7.5 mg/kg/d, NVP-BEZ235 50 mg/kg/d p.o.
Method: Five-week-old female athymic nude-Foxnlnu mice (Harlan Sprague-Dawley) were injected (s.c.) with either ˜4×10^6 (CAL-148) or ˜10×10^6 (MDA-MB-453) cells suspended in media (200 μL) into each flank using a 22-gauge needle. Once tumors reached a volume of 25-50 mm^3, mice were randomly allocated to treatment or vehicle arms. Treatments included bicalutamide p.o. (100 mg/kg/d), GDC0980 p.o. (7.5 mg/kg/d) in 5% DMSO, 0.5% carboxymethyl cellulose (MCT) or NVP-BEZ235 p.o. (50 mg/kg/d) in 0.5% MCT or the combination of bicalutamide and either GDC-0980 or NVP-BEZ235 according to the above concentrations. Tumor diameters were serially measured at the indicated times with digital calipers and tumor volumes were calculated as width^2×length/2.

[9] = test system: SUM185PE, CAL-148, CAL-51 and SUM159PT xenograft tumors; assay: Xenograft tumor studies (Example 1), PIK3CA-mutant lines; type: in vivo, mice; conditions: NVP-BEZ235 per oral 50 mg/kg/d, approximately 3 weeks
Method: Xenograft tumor studies. Five-week-old female athymic nude-Foxnlnu mice (Harlan Sprague-Dawley) were injected (s.c.) with either approximately 5×10^6 (CAL-51, HCC1806, MDA-MB-468, and SUM185PE) or approximately 10×10^6 (CAL-148 and SUM159PT) cells suspended in medium (200 μl) into each flank using a 22-gauge needle. […] Once tumors reached a volume of 25-50 mm^3, mice were randomly allocated to treatment or vehicle arms. Treatments included bicalutamide per oral (100 mg/kg/d), cisplatin i.p. (8 mg/kg/wk), or NVP-BEZ235 per oral (50 mg/kg/d) in 1:9 N-methylpyrolidone: PEG300. Tumor diameters were serially measured at the indicated times with digital calipers, and tumor volumes were calculated as width^2×length/2. Data points reflect the means and SEM for 16 tumors per treatment.

TNBC cell lines = assay: Cell proliferation/viability assay (alamarBlue), panel of TNBC cell lines (Example 1); type: cell-based, human
Method: as §2

[10] = test system: BRCA1-null cell line HCC1937; assay: Cell proliferation/viability assay (alamarBlue) and IC50 determination; type: cell-based; conditions: Homo sapiens, 72 hours, viability
Method: as §1

[11] = test system: BRCA1-mutant MDA-MB-436 cell line; assay: as above; type: cell-based; conditions: Homo sapiens, 72 hours, viability
Method: as §1

[12] = test system: BRCA2-mutant cell line HCC1599; assay: as above; type: cell-based; conditions: Homo sapiens, 72 hours, viability
Method: as §1

[13] = 72 hours, read-out: average IC50

SMILES: CO[C@H]1/C=C\C=C(/C)C(=O)NC2=CC(=O)C(NCCN(C)C)=C(C[C@@H](C)C[C@H](OC)[C@H](O)[C@@H](C)/C=C(\C)[C@@H]1OC(N)=O)C2=O [17-DMAG, 17-dimethylaminoethylamino-17-demethoxy-geldanamycin]
IC50 [1, 13]: 0.081 µM
IC50 (LAR TNBC cell lines; LAR cell lines): 0.016 µM
IC50 ([2]; mesenchymal-like cell lines): 0.117 µM

SMILES: C[C@@]1(C(=O)Nc2ccc(F)nc2)CCCN1c1nc(Nc2cc(C3CC3)n[nH]2)c2cccn2n1 [BMS-754807]
viability (half-maximal inhibitory concentration) across TNBC subtypes [3]: selectively inhibits viability of mesenchymal-like TNBC cell lines

SMILES: CS(=O)(=O)N1CCN(Cc2cc3nc(-c4cccc5[nH]ncc45)nc(N4CCOCC4)c3s2)CC1 [GDC-0941]
viability, single agent [4]: displayed efficacy
cell aggregate size and viability [5]: decreased cell aggregate size and viability
activated AKT [6]: decreased activated AKT
sub-G1 fraction (MDA-MB-453 cells; 48 h, alone): higher sub-G1 fraction
caspase 3/7 activation [7]: caused caspase activation

SMILES: Cc1c(CN2CCN(C(=O)[C@H](C)O)CC2)sc2c(N3CCOCC3)nc(-c3cnc(N)nc3)nc12 [GDC-0980]
viability, single agent [4]: displayed efficacy
cell aggregate size and viability [5]: decreased cell aggregate size and viability
activated AKT [6]: decreased activated AKT
AR levels ([6]; alone): decreased AR levels
mTOR activity as measured by levels of phosphorylated S6 ([6]; compared with GDC-0941): more effective at decreasing mTOR activity
tumor growth [8]: significantly decreased tumor growth
sub-G1 fraction (MDA-MB-453 cells; 48 h, alone): higher sub-G1 fraction
caspase 3/7 activation [7]: caused caspase activation

SMILES: Cn1c(=O)n(-c2ccc(C(C)(C)C#N)cc2)c2c3cc(-c4cnc5ccccc5c4)ccc3ncc21 [NVP-BEZ235]
tumor growth [8]: significantly decreased tumor growth
IC50 [1, 13]: 0.116 µM
IC50 ([1]; Homo sapiens, 72 h, read-out: average IC50): 0.201 µM
IC50 (LAR TNBC cell lines; Homo sapiens, LAR cell lines): 0.037 µM
IC50 ([2]; Homo sapiens, mesenchymal-like cell lines): 0.044 µM
xenograft tumor response [9]: partial response or complete
sensitivity (viability) (TNBC cell lines; TNBC cell lines with activated PI3K/AKT signaling due to PIK3CA mutations or PTEN deficiency): highly sensitive

SMILES: C[C@]1(O)C[C@@H](c2nc(-c3ccc4ccc(-c5ccccc5)nc4c3)c3c(N)nccn32)C1 [OSI-906]
viability (half-maximal inhibitory concentration) across TNBC subtypes [3]: selectively inhibits viability of mesenchymal-like TNBC cell lines

SMILES: C[C@@H](Oc1cc(-c2cnn(C3CCNCC3)c2)cnc1N)c1c(Cl)ccc(F)c1Cl [PF2341066]
viability (half-maximal inhibitory concentration) across TNBC subtypes [3]: selectively inhibits viability of mesenchymal-like TNBC cell lines

SMILES: COc1cccc2c1C(=O)c1c(O)c3c(c(O)c1C2=O)C[C@@](O)(C(=O)CO)C[C@@H]3O[C@H]1C[C@H](N)[C@H](O)[C@H](C)O1 [adriamycin]
caspase 3/7 activation [7]: robust caspase activation

SMILES: CC(O)(CS(=O)(=O)c1ccc(F)cc1)C(=O)Nc1ccc(C#N)c(C(F)(F)F)c1 (centres unmarked) [bicalutamide]
sub-G1 fraction (MDA-MB-453 cells; 48 h after treatment, increase from 5.25%): 18.44%
IC50 ([1]; Homo sapiens, 72 h, read-out: IC50): > 600 µM
IC50 (LAR TNBC cell lines; Homo sapiens, LAR lines): 227 µM
IC50 ([2]; Homo sapiens, subset of mesenchymal-like cell lines that express low levels of AR (HS578T, BT549, CAL-51, MDA-MB-231)): 361 µM
IC50 (TNBC cell lines; Homo sapiens, majority of TNBC cell lines, read-out: IC50 not achieved using the highest dose): > 500 µM

SMILES: Cc1nc(Nc2ncc(C(=O)Nc3c(C)cccc3Cl)s2)cc(N2CCN(CCO)CC2)n1 [dasatinib]
IC50 (LAR TNBC cell lines; Homo sapiens, LAR lines): 88 µM
IC50 ([2]; Homo sapiens, mesenchymal-like subtypes (M and MSL)): 22 µM

IC50 [10]: > 100 µM
IC50 [11]: 14 µM
IC50 [12]: > 100 µM
SMILES: O=C(c1cc(Cc2n[nH]c(=O)c3ccccc23)ccc1F)N1CCN(C(=O)C2CC2)CC1 [olaparib]

SMILES: CNC(=O)c1cc(Oc2ccc(NC(=O)Nc3ccc(Cl)c(C(F)(F)F)c3)cc2)ccn1 [sorafenib]
viability (half-maximal inhibitory concentration) across TNBC subtypes [3]: selectively inhibits viability of mesenchymal-like TNBC cell lines

IC50 [10]: 4 µM
IC50 [11]: 18 µM
IC50 [12]: > 30 µM
SMILES: C[C@]1(c2nc3c(C(N)=O)cccc3[nH]2)CCCN1 [veliparib]
